{"source": "patent US12478640B2", "about": "“Inhalation of nitric oxide for treating respiratory diseases” (BEYOND AIR LTD, priority 2012, dated 2025)", "key": {"variety of microbes": {"test_system": "variety of microbes", "conditions": "200 ppm gNO, cited from earlier work"}, "[1]": {"test_system": "Pseudomonas aeruginosa pneumonia", "conditions": "160 ppm gNO, intermittent 30 minute exposures; rat; cited from earlier work"}, "[2]": {"assay": "phase I safety study: oxygen saturation (SpO2) by pulse oximeter", "format": "in vivo, human", "from_the_text": "(§1) Cohort: 10 healthy adult volunteer subjects (5 males, 5 females), aged 20 to 62 years, were enrolled in the study after screening their medical history, a physical examination, pulmonary function tests and blood values. Exclusion criteria included individuals less than 19 years of age, pregnant females and unwilling to practice birth control during the study, diagnosed with pulmonary disease, epistaxis, hemoptysis, methemoglobinemia, organ transplant recipient or receiving antibiotic therapy.\n(§2) Regimen and post-treatment: After obtaining informed consent, treatment was initiated within 5 days of enrollment. […] Subject safety was determined by monitoring vital signs, methemoglobin levels, lung function, blood chemistry, hematology, prothrombin time, inflammatory cytokine/chemokines levels and endothelial activation. […]\n(§3) General medical examinations were performed by a pulmonary physician on screening and on days 8, 12 and 26 to obtain oxygenation and vital sign measurements. […] Oxygenation was measured with a pulse oximeter (Rad 57, Masimo Corporation, USA) which was used according to manufacturer's guidelines to measure functional oxygen saturation of arterial hemoglobin (SPO2) and heart rate. These parameters were measured continuously during every gNO administration and for 3.5 hours after the first treatment of the day. […]"}, "[3]": {"assay": "phase I safety study: plasma angiopoietins Ang-1 and Ang-2", "format": "in vivo, human", "conditions": "160 ppm gNO inhalation vs baseline", "from_the_text": "as §1\n(§4) Regimen and post-treatment: After obtaining informed consent, treatment was initiated within 5 days of enrollment. Subjects were housed in a hospital ward and received 160 ppm gNO for 30 minutes every four hours (Q4h), five times a day, for five consecutive days by inhalation. Subjects returned for follow-up evaluations 3, 7 and 21 days after the final gNO administration. Subject safety was determined by monitoring vital signs, methemoglobin levels, lung function, blood chemistry, hematology, prothrombin time, inflammatory cytokine/chemokines levels and endothelial activation. These parameters were compared to baseline and at various time-points during and after gNO administration.\nHematological assessment included a complete blood count and differentials (hemoglobin, hematocrit, red blood cell count, white blood cell count, white blood cell differential, and platelet count) were obtained in order to monitor blood chemistry, hematology and inflammation measurements. The blood chemistry profile included serum creatinine, and liver function tests such as aspartate aminotransferase (AST) serum glutamic oxaloacetic transaminase (SGOT), alkaline phosphatase, and gamma-glutamyl transferase (GGT). The effect of gNO on coagulation was determined by the prothrombin time (PT) and its derived measures of prothrombin ratio (PR) and international normalized ratio (INR). […] Plasma cytokine levels were assessed using the human inflammation cytokine bead array kit (BD Bioscience, Canada). Plasma levels of angiopoietin Ang-1 and Ang-2 were determined by ELISA (R&D Systems, USA). […]"}, "P. aeruginosa": {"test_system": "P. aeruginosa", "conditions": "solid media, cited from earlier work"}, "[4]": {"test_system": "five planktonic species of methicillin resistant S. aureus (MRSA)", "conditions": "1,600 ppm hours of gNO; all five strains; cited from earlier work"}, "[5]": {"assay": "phase I safety study: methemoglobin (SpMet) by pulse oximeter", "format": "in vivo, human", "from_the_text": "as §1, §4\nThe levels of gNO, NO2, O2 and methemoglobin were monitored during the administration of gNO. The target gas mixture was 160 ppm gNO with a nitrogen dioxide (NO2) level of less than 5 ppm and an oxygen (O2) level ranging from 21% to 25%. Inspiratory NO, NO2 and O2 levels were continuously monitored by sampling from the mouthpiece sample port located about 6 millimeters from the mouth of the subject with an AeroNOx (Pulmonox, AB, Canada) NO, NO2 and O2 electrochemical analyzer. Delivery safety was determined by the number of occasions that NO2 exceeded 5 ppm, gNO exceeding 10% variation and O2 dropping below 20% during gNO administration. A commercially available noninvasive pulse oximeter (Rad 57, Masimo Corporation, USA) was used to measure saturation levels at the periphery of methemoglobin (SpMet).\nThese parameters were measured continuously during every gNO administration course and for 3.5 hours after the first treatment of the day. Daily serum samples were collected and frozen at −80° C. and the serum […] level was measured using the Griess reagent."}, "[6]": {"test_system": "highly pathogenic Avian Influenza H7N3", "conditions": "cited from earlier work"}, "[7]": {"test_system": "chronic, non-healing wound", "conditions": "topical 200 ppm gNO; within the first three days; cited from earlier work"}, "[8]": {"conditions": "gNO concentrations below 200 ppm; 6 hours/day for 28 days; rats; cited from earlier work"}, "[9]": {"assay": "phase I safety study in healthy adults: adverse events and vital signs", "format": "in vivo, human", "conditions": "160 ppm gNO 30 min, 5 times a day, 5 days", "from_the_text": "as §1, §2, §3"}, "[10]": {"test_system": "bovine respiratory disease", "conditions": "intermittent gNO inhalation; cattle; cited from earlier work"}, "[11]": {"assay": "phase I safety study: plasma cytokines, cytometric bead array", "format": "in vivo, human", "conditions": "160 ppm gNO inhalation vs baseline", "from_the_text": "as §1, §4\nHematological assessment included a complete blood count and differentials (hemoglobin, hematocrit, red blood cell count, white blood cell count, white blood cell differential, and platelet count) were obtained in order to monitor blood chemistry, hematology and inflammation measurements. The blood chemistry profile included serum creatinine, and liver function tests such as aspartate aminotransferase (AST) serum glutamic oxaloacetic transaminase (SGOT), alkaline phosphatase, and gamma-glutamyl transferase (GGT). The effect of gNO on coagulation was determined by the prothrombin time (PT) and its derived measures of prothrombin ratio (PR) and international normalized ratio (INR). Heparinized plasma was collected at baseline and on days 1, 2, 4, and 5 of gNO administration, and on follow-up days 3, 7 and 21 and frozen at −80° C. Plasma cytokine levels were assessed using the human inflammation cytokine bead array kit (BD Bioscience, Canada). Plasma levels of angiopoietin Ang-1 and Ang-2 were determined by ELISA (R&D Systems, USA).\nFIGS. 6A-F present blood levels of various cytokines before and after inhalation of 160 ppm gaseous nitric oxide by 10 healthy human individuals, as measured from blood samples collected within 7 days prior to gNO administration, each day during the treatment and 8, 12 and 26 days thereafter, wherein FIG. 6A presents the plasma levels of tumor necrosis factor (TNF)α, interleukin (IL)-1β data is presented in FIG. 6B, IL-6 in FIG. 6C, IL-8 in FIG. 6D, IL-10 in FIG. 6E and IL-12p70 in FIG. 6F, as determined by a cytometric bead array while statistical differences are compared by repeated measures ANOVA with Bonferroni post test for parametric data (IL-6, IL-8, IL-10, IL-12p70), or Friedman test with Dunn's post test for non-parametric data (TNF and IL-1b)."}, "[12]": {"conditions": "healthy humans, cited from earlier work"}, "[13]": {"test_system": "influenza A/victoria/H3N2", "conditions": "160 ppm gNO, cited from earlier work"}, "S. aureus": {"test_system": "S. aureus", "conditions": "solid media, cited from earlier work"}, "[14]": {"conditions": "cited from earlier work"}, "[15]": {"assay": "phase I safety study: pulmonary function tests", "format": "in vivo, human", "from_the_text": "as §1, §4\nSubjects underwent full pulmonary function tests (PFT), including lung diffusing capacity (DLCO) by a trained technician utilizing a calibrated pulmonary function system (Jaeger MasterScreen, VIASYS Healthcare, USA) on screening and days 2, 8, 12 and 26. Spirometry test (Microloop by Micro Medical, England) was performed on days 1, 3 and 4. Effect of gNO on lung function and DLCO was determined by changes from baseline, treatment days and follow up days."}, "[16]": {"conditions": "gNO greater than 120 ppm, vs medical air"}, "[17]": {"conditions": "during the course of the study vs baseline"}}, "note": "Like-named read-outs stand apart in the source and are kept apart here."}
{"smiles": "[N]=O", "note": "[gNO, nitric oxide]", "values": [{"measurement": "bactericidal effect", "setting": "variety of microbes; all microorganisms tested", "value": "complete bactericidal effect"}, {"measurement": "reduction in CFU/mL", "setting": "variety of microbes; every bacteria challenged", "value": "≥ 3", "unit": "log10"}, {"measurement": "leukocyte infiltration", "setting": "[1]", "value": "effective to reduce"}, {"measurement": "pulmonary bioburden", "setting": "[1]", "value": "effective to reduce"}, {"measurement": "SpO2 change between pretreatment and post treatment", "setting": "[2]; 160 ppm gNO, not significant statistically nor clinically", "value": "decreased slightly"}, {"measurement": "hypoxemia (less than 85% SpO2)", "setting": "[2]; during or after 160 ppm gNO administration", "value": "No sudden incidences of hypoxemia"}, {"measurement": "Ang-2/Ang-1 ratio", "setting": "[3]", "value": "not affected"}, {"measurement": "plasma Ang-1", "setting": "[3]", "value": "unaffected"}, {"measurement": "plasma Ang-2", "setting": "[3]", "value": "not affected"}, {"measurement": "survival (downward bactericidal trend)", "setting": "P. aeruginosa; 50-160 ppm gNO", "value": "5-10%"}, {"measurement": "reduction of colony formation", "setting": "P. aeruginosa; [16]", "value": "greater than 90%"}, {"measurement": "population of planktonic MRSA strains", "setting": "[4]", "value": "reduction in the population"}, {"measurement": "follow-up SpMet", "setting": "[5]; 3, 7 and 21 days after final exposure", "value": "did not show any residual increase in SpMet"}, {"measurement": "all 930 recorded methemoglobin percent levels (SpMet)", "setting": "[5]; 160 ppm gNO 30 min, 5 times a day, 5 days", "value": "< 5", "unit": "%"}, {"measurement": "SpMet increase between pretreatment and post treatment", "setting": "[5]; 160 ppm gNO 30 min, p<0.001", "value": "about 1%"}, {"measurement": "time for SpMet to return to baseline", "setting": "[5]; after 160 ppm gNO 30 min, prior to next administration", "value": 3.5, "unit": "h"}, {"measurement": "highest SpMet", "setting": "[5]; at the end of the 30 minutes treatment, 160 ppm gNO", "value": 2.5, "unit": "%"}, {"measurement": "accumulation of SpMet with repeated treatments", "setting": "[5]; five daily treatments for five consecutive days", "value": "no accumulative or lingering effect"}, {"measurement": "SpMet level of subjects undergoing the method", "setting": "[5]; general statement referring to the Examples", "value": "≤ 1", "unit": "%"}, {"measurement": "average increase of SpMet", "setting": "[5]; single 30 minutes treatment course, 160 ppm gNO, baseline 0.16 percent", "value": 0.9, "unit": "%"}, {"measurement": "infectivity of virions", "setting": "[6]", "value": "reducing the infectivity"}, {"measurement": "biofilm of the wound", "setting": "[7]", "value": "no longer visibly present"}, {"measurement": "deaths", "setting": "[8]", "value": "No deaths occurred"}, {"measurement": "tolerability of treatments", "setting": "[9]; 10 healthy adults, 250 administrations", "value": "well tolerated"}, {"measurement": "minor adverse events reported", "setting": "[9]; arm bruising from blood draws (1), numbing of tongue (2)", "value": "Three minor adverse events"}, {"measurement": "clinical symptoms of bovine respiratory disease", "setting": "[10]", "value": "decrease the clinical symptoms"}, {"measurement": "plasma IL-1b level", "setting": "[11]", "value": "unaffected"}, {"measurement": "plasma IL-6 level", "setting": "[11]", "value": "unaffected"}, {"measurement": "plasma IL-8 level", "setting": "[11]", "value": "unaffected"}, {"measurement": "plasma IL-10 level", "setting": "[11]", "value": "unaffected"}, {"measurement": "plasma IL-12p70 level", "setting": "[11]", "value": "unaffected"}, {"measurement": "plasma TNF level", "setting": "[11]", "value": "unaffected"}, {"measurement": "MetHb level", "setting": "[12]; inhalation of 128 ppm for 3 hours", "value": "> 5", "unit": "%"}, {"measurement": "MetHb level", "setting": "[12]; inhalation of 512 ppm for 55 minutes", "value": "> 5", "unit": "%"}, {"measurement": "infectivity of virions", "setting": "[13]; MDCK cells", "value": "reducing the infectivity"}, {"measurement": "anti-viral effect, intermittent vs single exposure", "setting": "[13]; one 30 minute dose vs three 30 minute treatments Q4h", "value": "more evident in the intermittent form of exposure"}, {"measurement": "survival (downward bactericidal trend)", "setting": "S. aureus; 50-160 ppm gNO", "value": "5-10%"}, {"measurement": "reduction of colony formation", "setting": "S. aureus; [16]", "value": "greater than 90%"}, {"measurement": "mortality", "setting": "[14]; 300 ppm gNO, first 1-2 days, group of 10 rats", "value": "Six of the animals treated with 300 ppm gNO died"}, {"measurement": "mortality", "setting": "[14]; 400 ppm gNO, first day of exposure, groups of 10 rats", "value": "all of the animals died"}, {"measurement": "mortality", "setting": "[14]; 500 ppm gNO, first day of exposure, groups of 10 rats", "value": "all of the animals died"}, {"measurement": "pulmonary function tests", "setting": "[15]; during and after 160 ppm gNO treatments", "value": "did not reveal any abnormalities"}, {"measurement": "FEV1", "setting": "[15]; [17]", "value": "did not differ from baseline"}, {"measurement": "maximum mid-expiratory flow (MMEF)", "setting": "[15]; [17]", "value": "did not differ from baseline"}]}
